The results in this text go back to ChEMBL document CHEMBL1201862, “PubChem BioAssay data set” (2004).

In experiment [1] the target is Induced myeloid leukemia cell differentiation protein Mcl-1 (Homo sapiens, UniProt Q07820). It counts as functional.
The target of experiment [2] is Nonstructural protein 1 (Influenza A virus, UniProt Q194T2). Type of experiment: functional, Influenza A virus (A/California/07/2009(H1N1)).
In experiment [3] the test system is INS1. As to the kind of experiment: beta cell apoptosis inhibitors, cytokine rescue, dose response, luminescence, retest (AID 449756).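 Note: cell death triggered by IL-1 beta plus TNF-alpha plus IFN-gamma mixture; protective hits raise ATP signal compared with cytokine alone wells.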 Type of experiment: functional, cell-based. The following applies: Rattus norvegicus.
Experiment [4] in a line: Shn3 3'UTR reporter inhibitors, dose response, cell-based, Clone20 osteoblasts, firefly luciferase, cherry-picked (AID 624132).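 Note: firefly luciferase luminescence from reporter carrying the Shn3 3'UTR in osteoblasts.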 Type of experiment: functional.
The target of experiment [5] is Large T antigen (Simian virus 40, UniProt P03070). Type of experiment: functional, Betapolyomavirus macacae.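 Note: Confirmatory-stage PubChem screen for compounds that inhibit SV40 T antigen.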
The nature of experiment [6]: growth suppression of PTEN-null colon cells, dose response, cell-based, HCT116 PTEN knockout (AID 1047).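 Note: HCT116 colon tumor cells with PTEN knocked out; cells exposed to compound for 60 hours before readout; potency for loss of cell viability measured by luminescence.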 It counts as functional.
Experiment [7] in a line: growth suppression of beta-catenin-knockout colon cells, dose response, cell-based, HCT116, human colon tumor (AID 1045).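 Note: HCT116 colon tumor cells with beta catenin knocked out; cells exposed to compound for 60 hours.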 It counts as functional.
Experiment [8] is described as follows: Luminescence Cell-Based Dose Retest to Confirm Inhibitors of Cancer Stem Cells. [Related pubchem assays (depositor defined):AID2717, AID2721]. The conditions noted are these: Homo sapiens. It counts as functional.
The target in experiment [9] is T1, Aminopeptidase N (Plasmodium falciparum FcB1/Columbia, UniProt O96935).
T1 sequence (O96935 whole entry): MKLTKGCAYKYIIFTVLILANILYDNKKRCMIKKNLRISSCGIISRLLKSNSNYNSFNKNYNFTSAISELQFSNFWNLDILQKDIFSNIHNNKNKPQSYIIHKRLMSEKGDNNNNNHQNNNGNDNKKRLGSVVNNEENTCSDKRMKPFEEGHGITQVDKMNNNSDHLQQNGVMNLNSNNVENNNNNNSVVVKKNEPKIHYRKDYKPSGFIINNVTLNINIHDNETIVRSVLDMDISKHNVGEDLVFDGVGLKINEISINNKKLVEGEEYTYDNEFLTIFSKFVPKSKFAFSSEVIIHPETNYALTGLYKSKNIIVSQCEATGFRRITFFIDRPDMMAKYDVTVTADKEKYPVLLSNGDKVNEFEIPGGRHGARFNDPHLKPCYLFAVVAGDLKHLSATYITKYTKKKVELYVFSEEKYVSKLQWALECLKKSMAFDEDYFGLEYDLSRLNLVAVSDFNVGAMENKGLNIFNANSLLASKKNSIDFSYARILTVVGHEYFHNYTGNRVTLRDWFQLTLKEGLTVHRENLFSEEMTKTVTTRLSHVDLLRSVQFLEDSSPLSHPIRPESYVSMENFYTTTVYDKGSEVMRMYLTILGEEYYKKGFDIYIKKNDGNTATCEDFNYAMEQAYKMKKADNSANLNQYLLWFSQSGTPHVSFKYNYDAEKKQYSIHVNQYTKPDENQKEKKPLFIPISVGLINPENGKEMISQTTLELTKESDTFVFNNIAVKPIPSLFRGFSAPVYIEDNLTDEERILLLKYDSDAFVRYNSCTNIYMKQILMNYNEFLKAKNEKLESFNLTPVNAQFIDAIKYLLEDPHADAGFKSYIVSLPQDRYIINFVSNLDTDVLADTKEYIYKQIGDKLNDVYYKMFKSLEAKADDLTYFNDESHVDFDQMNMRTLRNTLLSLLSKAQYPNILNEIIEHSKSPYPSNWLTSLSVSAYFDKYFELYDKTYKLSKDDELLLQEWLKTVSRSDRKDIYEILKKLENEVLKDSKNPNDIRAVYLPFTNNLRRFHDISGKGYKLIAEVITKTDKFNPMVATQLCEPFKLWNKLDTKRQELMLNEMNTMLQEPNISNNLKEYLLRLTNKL
Briefly: P. falciparum M1AAP inhibitors, biochemical, fluorogenic H-Leu-NHMec substrate, 1536-well (AID 1445). Details: species or system Plasmodium falciparum 3D7, 3D7.

The target in experiment [10] is T2, Rac GTPase-activating protein 1 (Homo sapiens, UniProt Q9H0H5).
T2 sequence (Q9H0H5 whole entry): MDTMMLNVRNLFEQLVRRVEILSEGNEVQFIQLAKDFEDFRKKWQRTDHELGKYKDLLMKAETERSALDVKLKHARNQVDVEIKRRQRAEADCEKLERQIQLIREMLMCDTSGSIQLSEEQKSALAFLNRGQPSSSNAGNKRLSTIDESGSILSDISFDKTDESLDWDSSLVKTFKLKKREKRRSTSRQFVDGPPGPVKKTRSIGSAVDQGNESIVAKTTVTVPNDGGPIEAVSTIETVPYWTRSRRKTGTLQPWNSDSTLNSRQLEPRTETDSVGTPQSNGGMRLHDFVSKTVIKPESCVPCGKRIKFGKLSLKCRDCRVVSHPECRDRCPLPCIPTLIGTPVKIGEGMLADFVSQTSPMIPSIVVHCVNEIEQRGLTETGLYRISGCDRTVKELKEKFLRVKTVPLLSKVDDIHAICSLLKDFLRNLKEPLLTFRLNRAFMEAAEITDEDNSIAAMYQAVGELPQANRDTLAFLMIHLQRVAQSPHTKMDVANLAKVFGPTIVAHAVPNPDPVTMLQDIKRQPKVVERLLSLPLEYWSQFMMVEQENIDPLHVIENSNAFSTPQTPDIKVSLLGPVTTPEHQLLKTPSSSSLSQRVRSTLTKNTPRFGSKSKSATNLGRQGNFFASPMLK
As to the kind of experiment: MgcRacGAP GTPase-activating activity inhibitors, confirmation, biochemical, ADP Hunter fluorescence, primary and confirmatory (AID 624330). Type of experiment: functional.

In experiment [11] the target is T3, Leucine aminopeptidase (Plasmodium falciparum 3D7, UniProt Q8IL11).
T3 sequence (Q8IL11 whole entry): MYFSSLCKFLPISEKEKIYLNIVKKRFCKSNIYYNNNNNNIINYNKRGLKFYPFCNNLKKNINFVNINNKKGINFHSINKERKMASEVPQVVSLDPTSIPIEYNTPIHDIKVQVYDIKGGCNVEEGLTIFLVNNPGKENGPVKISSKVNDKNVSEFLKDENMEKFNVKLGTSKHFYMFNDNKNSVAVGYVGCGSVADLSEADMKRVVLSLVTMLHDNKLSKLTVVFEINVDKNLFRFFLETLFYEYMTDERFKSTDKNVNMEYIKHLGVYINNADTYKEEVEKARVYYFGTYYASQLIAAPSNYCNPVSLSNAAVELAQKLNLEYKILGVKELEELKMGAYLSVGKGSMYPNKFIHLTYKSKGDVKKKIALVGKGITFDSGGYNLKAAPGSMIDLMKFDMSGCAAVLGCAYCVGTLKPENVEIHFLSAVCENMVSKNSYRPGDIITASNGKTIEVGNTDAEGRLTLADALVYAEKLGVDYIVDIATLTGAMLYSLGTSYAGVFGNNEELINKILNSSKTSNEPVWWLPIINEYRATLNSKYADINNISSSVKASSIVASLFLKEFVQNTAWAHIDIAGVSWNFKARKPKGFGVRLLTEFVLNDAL
Briefly: P. falciparum M17LAP inhibitors, primary screen, biochemical, fluorogenic H-Leu-NHMec substrate, 1536-well (AID 1619). Type of experiment: functional.

Experiment [12] in a line: inhibitors of HIV Env-driven cell fusion, dose response, cherry-pick (AID 652057). Type of experiment: functional, cell-based.
Experiment [13] can be described thus: ZM109 Env clade C HIV-1 fusion inhibitors, dose response, HeLa effector, CEM target cells, luciferase, cherry-pick (AID 652058). It counts as functional, cell-based.
Experiment [14] is described as follows: inhibitors of clade B AD8 Env fusion, dose response, cell-based, cherry-pick (AID 652062).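 Note: luciferase signal from cell-cell fusion driven by HIV-1 clade B AD8 Env; potency is for inhibitors of fusion seen as a drop in luminescence.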 It counts as functional.
Experiment [15] can be described thus: off-target signal loss in HeLa-CEM21 co-culture – HeLa F-luc CTL cells, cherry-picked, counter-screen for HIV-1 Env fusion inhibitor project, dose response (AID 652040).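 Note: potency for signal decrease marking cytotoxic or nonspecific inhibition.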 It counts as functional, cell-based. On the technique in general: Counterscreens check selectivity or assay interference.
The nature of experiment [16]: HEp-2 cell cytotoxicity, dose response, cytotoxicity control for RSV inhibitor project, HTS (AID 2410). Type of experiment: functional. The following applies: human respiratory syncytial virus.
Experiment [17] deals with T4, Cytochrome P450 1A2 (Homo sapiens, UniProt P05177).
T4 sequence (P05177 whole entry): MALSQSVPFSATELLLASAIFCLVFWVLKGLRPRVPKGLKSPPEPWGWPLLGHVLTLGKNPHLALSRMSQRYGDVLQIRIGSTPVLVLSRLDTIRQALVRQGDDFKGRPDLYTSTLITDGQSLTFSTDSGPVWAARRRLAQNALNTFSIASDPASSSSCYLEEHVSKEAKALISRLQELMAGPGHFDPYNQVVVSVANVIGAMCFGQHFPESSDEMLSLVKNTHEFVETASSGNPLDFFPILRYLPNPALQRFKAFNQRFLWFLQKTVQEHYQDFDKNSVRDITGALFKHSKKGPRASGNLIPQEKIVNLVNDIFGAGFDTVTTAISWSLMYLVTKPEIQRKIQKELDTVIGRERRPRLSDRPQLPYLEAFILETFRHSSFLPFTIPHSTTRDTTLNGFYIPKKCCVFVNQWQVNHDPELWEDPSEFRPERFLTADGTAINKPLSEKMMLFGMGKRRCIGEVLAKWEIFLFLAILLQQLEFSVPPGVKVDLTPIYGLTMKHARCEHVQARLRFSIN

Calls of active or inactive are those of the source. Where only a bound is given, the exact number is not on record here.

Large T antigen, sequence (P03070 whole entry): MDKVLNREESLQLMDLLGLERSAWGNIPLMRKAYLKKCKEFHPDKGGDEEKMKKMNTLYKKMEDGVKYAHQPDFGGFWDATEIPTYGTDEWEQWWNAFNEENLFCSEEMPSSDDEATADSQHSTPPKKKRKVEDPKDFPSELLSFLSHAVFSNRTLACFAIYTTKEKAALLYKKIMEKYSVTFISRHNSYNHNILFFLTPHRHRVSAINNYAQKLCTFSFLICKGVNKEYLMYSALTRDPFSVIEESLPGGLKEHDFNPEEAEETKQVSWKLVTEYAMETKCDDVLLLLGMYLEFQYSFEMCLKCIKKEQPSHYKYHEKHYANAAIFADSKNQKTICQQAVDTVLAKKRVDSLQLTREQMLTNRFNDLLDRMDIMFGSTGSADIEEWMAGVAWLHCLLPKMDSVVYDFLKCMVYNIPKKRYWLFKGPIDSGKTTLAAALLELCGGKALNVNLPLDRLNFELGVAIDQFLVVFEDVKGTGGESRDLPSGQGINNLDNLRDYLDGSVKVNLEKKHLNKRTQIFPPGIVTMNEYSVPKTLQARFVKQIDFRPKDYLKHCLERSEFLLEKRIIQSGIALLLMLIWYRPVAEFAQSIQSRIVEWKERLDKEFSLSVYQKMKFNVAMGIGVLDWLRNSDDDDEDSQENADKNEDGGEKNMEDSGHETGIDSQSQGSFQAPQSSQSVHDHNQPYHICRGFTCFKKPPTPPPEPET
Induced myeloid leukemia cell differentiation protein Mcl-1, sequence (Q07820 whole entry): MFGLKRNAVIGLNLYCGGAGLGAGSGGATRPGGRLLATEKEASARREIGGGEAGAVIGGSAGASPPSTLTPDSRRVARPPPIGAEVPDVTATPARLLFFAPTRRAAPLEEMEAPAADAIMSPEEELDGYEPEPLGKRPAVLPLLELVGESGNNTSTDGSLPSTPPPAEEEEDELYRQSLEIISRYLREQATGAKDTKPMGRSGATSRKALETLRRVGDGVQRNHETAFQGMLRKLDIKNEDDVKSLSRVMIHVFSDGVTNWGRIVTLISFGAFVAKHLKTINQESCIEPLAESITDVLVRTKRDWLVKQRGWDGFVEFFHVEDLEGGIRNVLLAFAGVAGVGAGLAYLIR
Nonstructural protein 1, sequence (Q194T2 whole entry): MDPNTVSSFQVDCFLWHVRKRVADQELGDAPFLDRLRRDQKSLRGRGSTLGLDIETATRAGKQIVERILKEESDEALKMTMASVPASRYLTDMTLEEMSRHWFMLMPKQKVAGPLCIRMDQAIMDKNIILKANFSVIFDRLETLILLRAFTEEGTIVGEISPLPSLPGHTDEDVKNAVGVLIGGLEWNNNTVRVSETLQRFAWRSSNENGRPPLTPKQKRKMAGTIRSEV

By IC50 is commonly meant the concentration at which inhibition is half-maximal. Consider `FC(F)(F)C1=CC(c2ccccc2)=NCCN1`, for which the IC50 in [1] is 9.33 µM (not active).
One may read the AC50 as the midpoint of the concentration-response curve, whichever way the signal moves. Turning to `Cc1ccccc1NC(=S)N/N=C/c1ccc(O)cc1O`, the IC50 in experiment [2] is 11.2 µM (active). Moreover, the AC50 in experiment [3] was 2.54 µM (active).
For `CCCCN1CC(COCc2ccccc2)Oc2cccc(Oc3ccc(C)cc3)c2S1(=O)=O` (configuration not stated), the AC50 in experiment [4] is 10.7 µM (active).
In the case of `Oc1ccc(-c2nc3ncccn3c2Nc2ccc3c(c2)OCO3)cc1`, in experiment [5], the IC50 was 15.6 µM (active).
What is called EC50 is the midpoint of the concentration-response curve. Consider `COc1ccc(C2NCCc3c2[nH]c2ccccc32)cc1CSc1nc2ccccc2s1` (configuration not stated), for which the results for the EC50 in experiment [6] and in experiment [7] were 12.1 µM (active) and 10.1 µM (active), respectively. For the same molecule, the AC50 in experiment [8] was 3.13 µM (active).
Take `CCCCc1nc2sc3c(c2c(=O)n1NC(=O)c1ccco1)CC(C)(C)OC3`: in experiment [9], the IC50 is 42.8 µM (active).
For the molecule `Cc1nnc(SCC(=O)Nc2ccc(N(C)C)cc2)n(N)c1=O`, in [5], the IC50 was 11.6 µM (active).
As for `CCOc1cc(/C=N/NC(=O)CCc2nnc(O)nc2O)ccc1O`, the values for the IC50 in experiment [5] and in [10] were 32.7 µM (active) and 59.5 µM (active), respectively.
With `O=C(CSc1ncccc1C(=O)O)NCc1ccc(F)cc1`, the IC50 in experiment [11] was 42.7 µM (active).
The same measure, in the same setting: with `Cc1cc(C=C2C(=O)c3ccccc3C2=O)c(C)n1-c1cccc(C(=O)O)c1` the figure was 18.6 µM (active).
Regarding `CN(C)c1ccc(NC(=O)CCN2CCN(c3ccccn3)CC2)cc1`, the IC50 in experiment [5] is 6.73 µM (active).
`COc1nccnc1NS(=O)(=O)c1ccc(/N=C/c2c(C)nn(-c3ccc(C)c(C)c3)c2O)cc1`: the IC50 in experiment [11] was 19.3 µM (active).
For the molecule `CC12CC3CC(C)(C1)CC(C(=O)NCc1ccncc1)(C3)C2`, the AC50 was 7.75 µM (active) in experiment [12], 4.58 µM (active) in [13], 22.4 µM (active) in [14] and 13.5 µM (active) in experiment [15].
As to `NC(CC(=O)O)c1ccc(Br)cc1` (configuration not stated), the IC50 in experiment [9] was 69.2 µM (active).
`CCc1cc(=O)oc2c(C)c(O)c(CN3CCCCC3)cc12`: the IC50 in experiment [9] was 39.9 µM (active).
For `O=c1[nH]c2ccc(Cl)cc2c(-c2ccccc2)c1CN1CCOCC1`, the IC50 in experiment [9] is 81.5 µM (active).
`CCOc1ccc(C2C3=C(O)c4ccccc4C3=Nc3nc(N)nc(O)c32)cc1` (configuration not stated): the half-inhibitory concentration (IC50) in [1] was > 54 µM (active).
As for `CC1CCC2(CC1)NC(=O)N(CC(=O)Nc1ccc3c(c1)OCCO3)C2=O` (configuration not stated), in experiment [11], the IC50 is 13.8 µM (active).
For `COc1ccc(C(C(=O)NC2CCCC2)N(C(=O)c2ccoc2C)c2ccc(C)cc2)cc1` (configuration not stated), the AC50 was 5.46 µM (active) in experiment [12], 3.47 µM (active) in [13], 11.7 µM (active) in experiment [14] and 8.48 µM (active) in experiment [15].
On to `O=C(NCC1OCCc2ccccc21)c1ccc(NC(=O)c2cccc(Br)c2)cc1` (configuration not stated), for which the EC50 in experiment [6] is 25.2 µM (active); in [7], 36.9 µM (active).
Take `COc1ccc(/C=C/C(O)=C2\C(=O)NC(=O)N(CCC3=CCCCC3)C2=O)cc1`: the EC50 in [6] is 13.7 µM (active); in [7], 14.4 µM (active). In addition, in [8], the concentration at half-maximal activity (AC50) is 2.71 µM (active).
Consider `O=C(Nc1nc2ccccc2[nH]1)c1ccc(Cl)c([N+](=O)[O-])c1`, for which, in experiment [1], the IC50 was 6.46 µM (active).
As a reminder, the CC50 is the concentration at which the toxic effect on the cells reaches its halfway point. `C=CCOc1ccccc1CNc1ccc2[nH]c(O)nc2c1`: in [5], the IC50 was 19 µM (active). In addition, the CC50 in [16] is 21.8 µM (active).
Regarding `CC(C)S(=O)(=O)C1=NSC2=NC(=O)/C(=C\c3c[nH]c4ccccc34)C(=N)N21`, in [9], the IC50 was 37.3 µM (active).
Turning to `CCC(=O)c1ccc(OCC(O)CN(CCc2ccccc2)Cc2ccccc2)cc1` (configuration not stated), the concentration giving a half-maximal response (EC50) in [6] is 49.2 µM (active); in experiment [7] it was 83.6 µM (active). Besides, the AC50 in [17] was 20 µM (inconclusive).
As for `CC(NC(=O)c1ccco1)C(=O)Nc1nc(-c2ccccn2)cs1` (configuration not stated), the IC50 in experiment [2] was 9.55 µM (active).
